Results from publication PMC11084427 (2024).

Experiments:
[1] = test system: poly dA-poly dT (pdApdT) (DNA, polymer) A/T; assay: UV melting, 260 nm; conditions: Na+ (sodium cacodylate, I = 0.05 M), pH 7.0, per base
[2] = test system: poly A-poly U (pApU) (RNA, polymer) A/U; assay: UV melting, 260 nm; conditions: Na+ (sodium cacodylate, I = 0.05 M); pH 7.0; compound/polynucleotide r = 0.3; per base
[3] = test system: poly(dAdT)2 (DNA, polymer) AT; assay: UV melting, 260 nm; conditions: Na+ (sodium cacodylate, I = 0.05 M); pH 7.0; compound/polynucleotide r = 0.3; per base
[4] = test system: poly(dGdC)2 (DNA, polymer) GC; assay: fluorescence titration, Scatchard; conditions: Na+ (sodium cacodylate, I = 0.05 M); pH 7.0, 25 °C; per phosphate; per base
[5] = test system: poly(dAdT)2 (DNA, polymer) AT; assay: fluorescence titration, Scatchard; conditions: Na+ (sodium cacodylate, I = 0.05 M); pH 7.0, 25 °C; per phosphate; per base
[6] = test system: poly A-poly U (pApU) (RNA, polymer) A/U; assay: fluorescence titration, Scatchard; conditions: Na+ (sodium cacodylate, I = 0.05 M), per phosphate, per base
[7] = test system: dAdTdT (ATT) triplex (DNA, polymer) A/T/T; assay: fluorescence titration, Scatchard; conditions: Na+ (sodium cacodylate, I = 0.05 M); pH 7.0, 25 °C; per phosphate; per base
[8] = test system: dAdTdT (ATT) triplex (DNA, polymer) A/T/T; assay: UV melting, 260 nm; conditions: Na+ (sodium cacodylate with NaCl, I = 0.1 M); pH 7.0, 1 mM EDTA; 7.5 μM compound, r = 0.3; transition Tm3→1 (third strand); per base
[9] = test system: poly dA-poly dT (pdApdT) (DNA, polymer) A/T; assay: fluorescence titration, Scatchard; conditions: Na+ (sodium cacodylate, I = 0.05 M); pH 7.0, 25 °C; per phosphate; per base
[10] = compound/polynucleotide r = 0.3

SMILES | ΔTm [1, 10] | ΔTm [2] | ΔTm [3] | log Ka [4] | log Ka [5] | log Ka ([6]; pH 5.0, 25 °C, not determinable at pH 7.0) | ΔTm ([1]; r = 0.3, biphasic, second transition) | log Ka [7] | ΔTm [8] | log Ka [9] | log Ka ([6]; pH 7.0, 25 °C)
COC(=O)[C@H](Cc1ccc2c(c1)c(C)nc1ccccc12)NC(=O)CNC(=O)CNC(=O)c1ccc(C(=O)NC(=N)N)[nH]1 | 0.7 ± 0.5 °C | 0 ± 0.5 °C | 1.2 ± 0.5 °C |  |  |  |  |  |  |  | 
COC(=O)[C@H](Cc1ccc2c(c1)c(C)nc1ccccc12)NC(=O)CNC(=O)[C@H](CCCCN)NC(=O)c1ccc(C(=O)NC(=N)N)[nH]1 | 1.5 ± 0.5 °C | 0 ± 0.5 °C | 2.6 ± 0.5 °C | 6.1 | 6.7 | 5.5 |  |  |  |  | 
COC(=O)[C@H](Cc1ccc2c(c1)c(C)nc1ccccc12)NC(=O)[C@H](CCCCN)NC(=O)CNC(=O)c1ccc(C(=O)NC(=N)N)[nH]1 |  | 2.5 ± 0.5 °C | 1.0 ± 0.5 °C | 5.8 | 6.7 |  | 2.1 ± 0.5 °C | 7.4 | 1.1 ± 0.5 °C | 6.6 | 7.1
